Measured values from US10464929B2, “Organic molecules for terahertz tagging applications” (Council of Scientific & Industrial Research, priority 2014, dated 2019).

Assay: Solubility of the THz molecular tags in various solvents
Assay type: physicochemical

Solubility in THF (solvent THF (tetrahydrofuran)) | Solubility in Diethyl Ether (solvent Diethyl Ether) | Solubility in Toluene (solvent Toluene) | Compound
Turbid | – | – | O=C(NCCNC(=O)Nc1ccccc1)Nc1ccccc1 [PhU—C2—UPh, 1,1′-(ethane-1,2-diyl)bis(3-phenylurea)]
– | Turbid | Turbid | O=C(Nc1ccccc1)Nc1cccc(NC(=O)c2ccccc2)n1 [PhU—Ph—AP, N-(6-(3-phenylureido)pyridin-2-yl)benzamide]
